Data reported in the NIST ThermoML archive (doi:10.1016/j.jct.2011.02.018).
± gives the expanded uncertainty stated by the source.

Assay: xn = mol fraction of the nth substance listed
Conditions: 101 kPa, Liquid; for viscosity: Concentric cylinders viscometry; for mass density: Vibrating tube method

COC(C)(C)C [2-methoxy-2-methylpropane] + CCCCCO
Conditions	mass density, 293.15 K [kg/m3]	mass density, 298.15 K [kg/m3]	mass density, 303.15 K [kg/m3]	mass density, 308.15 K [kg/m3]	viscosity, 293.15 K [mPa·s]	viscosity, 298.15 K [mPa·s]	viscosity, 303.15 K [mPa·s]	viscosity, 308.15 K [mPa·s]
x1 = 0.0105	813.89 ± 0.29	810.25 ± 0.29	806.55 ± 0.29	802.82 ± 0.29	3.895 ± 0.16	3.372 ± 0.14	2.932 ± 0.12	2.562 ± 0.1
x1 = 0.0197	813.34 ± 0.29	809.68 ± 0.29	805.95 ± 0.29	802.2 ± 0.29	3.775 ± 0.15	3.273 ± 0.13	2.852 ± 0.12	2.493 ± 0.1
x1 = 0.0321	812.56 ± 0.29	808.89 ± 0.29	805.15 ± 0.29	801.39 ± 0.29	3.615 ± 0.15	3.143 ± 0.13	2.743 ± 0.11	2.406 ± 0.099
x1 = 0.0401	812.06 ± 0.29	808.37 ± 0.29	804.63 ± 0.29	800.86 ± 0.29	3.516 ± 0.14	3.059 ± 0.13	2.675 ± 0.11	2.344 ± 0.096
x1 = 0.0506	811.39 ± 0.29	807.69 ± 0.29	803.93 ± 0.29	800.15 ± 0.29	3.394 ± 0.14	2.958 ± 0.12	2.588 ± 0.11	2.274 ± 0.093
x1 = 0.0595	810.83 ± 0.29	807.12 ± 0.29	803.35 ± 0.29	799.56 ± 0.29	3.292 ± 0.14	2.872 ± 0.12	2.517 ± 0.1	2.214 ± 0.091
x1 = 0.0699	810.18 ± 0.29	806.45 ± 0.29	802.67 ± 0.29	798.87 ± 0.29	3.176 ± 0.13	2.778 ± 0.11	2.438 ± 0.1	2.149 ± 0.088
x1 = 0.0811	809.49 ± 0.28	805.73 ± 0.28	801.94 ± 0.29	798.11 ± 0.29	3.061 ± 0.13	2.683 ± 0.11	2.357 ± 0.097	2.079 ± 0.085
x1 = 0.0901	808.93 ± 0.28	805.14 ± 0.28	801.33 ± 0.28	797.5 ± 0.28	2.97 ± 0.12	2.606 ± 0.11	2.294 ± 0.094	2.028 ± 0.083
x1 = 0.1042	808.03 ± 0.28	804.23 ± 0.28	800.41 ± 0.28	796.55 ± 0.28	2.841 ± 0.12	2.495 ± 0.1	2.214 ± 0.091	1.949 ± 0.08
x1 = 0.1506	805.02 ± 0.28	801.2 ± 0.28	797.3 ± 0.28	793.39 ± 0.28	2.45 ± 0.1	2.168 ± 0.089	1.927 ± 0.079	1.716 ± 0.07
x1 = 0.2078	801.27 ± 0.27	797.36 ± 0.27	793.4 ± 0.27	789.41 ± 0.27	2.058 ± 0.084	1.837 ± 0.075	1.648 ± 0.067	1.473 ± 0.06
x1 = 0.252	798.32 ± 0.27	794.34 ± 0.27	790.33 ± 0.27	786.28 ± 0.27	1.809 ± 0.074	1.619 ± 0.066	1.457 ± 0.06	1.312 ± 0.054
x1 = 0.301	795.01 ± 0.26	790.96 ± 0.26	786.88 ± 0.26	782.75 ± 0.26	1.574 ± 0.064	1.418 ± 0.058	1.281 ± 0.052	1.159 ± 0.047
x1 = 0.3492	791.65 ± 0.26	787.57 ± 0.26	783.41 ± 0.26	779.21 ± 0.26	1.387 ± 0.057	1.254 ± 0.051	1.135 ± 0.046	1.033 ± 0.042
x1 = 0.3996	788.14 ± 0.26	783.99 ± 0.26	779.75 ± 0.26	775.48 ± 0.26	1.207 ± 0.049	1.098 ± 0.045	1 ± 0.041	0.9139 ± 0.037
x1 = 0.4577	784 ± 0.25	779.75 ± 0.25	775.42 ± 0.25	771.06 ± 0.25	1.042 ± 0.043	0.953 ± 0.039	0.8735 ± 0.036	0.8008 ± 0.033
x1 = 0.4985	781.06 ± 0.25	776.76 ± 0.25	772.36 ± 0.25	767.93 ± 0.25	0.9442 ± 0.039	0.8668 ± 0.036	0.7962 ± 0.033	0.7313 ± 0.03
x1 = 0.5512	777.21 ± 0.25	772.8 ± 0.25	768.33 ± 0.25	763.81 ± 0.25	0.8364 ± 0.034	0.7702 ± 0.032	0.7102 ± 0.029	0.6515 ± 0.027
x1 = 0.5999	773.61 ± 0.25	769.09 ± 0.25	764.55 ± 0.25	759.95 ± 0.25	0.7504 ± 0.031	0.6941 ± 0.029	0.6401 ± 0.026	0.5895 ± 0.024
x1 = 0.6506	769.72 ± 0.24	765.16 ± 0.25	760.51 ± 0.25	755.83 ± 0.25	0.6719 ± 0.028	0.6222 ± 0.026	0.5765 ± 0.024	0.5309 ± 0.022
x1 = 0.6986	766.04 ± 0.24	761.39 ± 0.24	756.67 ± 0.24	751.9 ± 0.25	0.606 ± 0.025	0.5627 ± 0.023	0.5215 ± 0.022	0.4812 ± 0.02
x1 = 0.7451	762.49 ± 0.24	757.72 ± 0.24	752.92 ± 0.24	748.06 ± 0.24	0.5517 ± 0.023	0.5167 ± 0.021	0.4765 ± 0.02	0.4421 ± 0.018
x1 = 0.7976	758.12 ± 0.24	753.3 ± 0.24	748.39 ± 0.24	743.42 ± 0.24	0.4971 ± 0.021	0.4653 ± 0.019	0.4332 ± 0.018	0.4011 ± 0.017
x1 = 0.8534	753.55 ± 0.24	748.61 ± 0.24	743.59 ± 0.24	738.51 ± 0.24	0.4455 ± 0.019	0.4172 ± 0.017	0.3868 ± 0.016	0.3584 ± 0.015
x1 = 0.898	749.74 ± 0.24	744.73 ± 0.24	739.63 ± 0.24	734.47 ± 0.24	0.4101 ± 0.017	0.3855 ± 0.016	0.3594 ± 0.015	0.3315 ± 0.014
x1 = 0.9098	748.75 ± 0.24	743.7 ± 0.24	738.59 ± 0.24	733.41 ± 0.24	0.4017 ± 0.017	0.3772 ± 0.016	0.3526 ± 0.015	0.3257 ± 0.014
x1 = 0.9195	747.92 ± 0.24	742.85 ± 0.24	737.72 ± 0.24	732.53 ± 0.24	0.3954 ± 0.017	0.3701 ± 0.016	0.3467 ± 0.015	0.3192 ± 0.014
x1 = 0.9289	747.1 ± 0.24	742.01 ± 0.24	736.85 ± 0.24	731.64 ± 0.24	0.388 ± 0.016	0.3658 ± 0.015	0.3396 ± 0.014	0.3137 ± 0.013
x1 = 0.9419	745.96 ± 0.24	740.85 ± 0.24	735.67 ± 0.24	730.43 ± 0.24	0.3807 ± 0.016	0.3564 ± 0.015	0.3307 ± 0.014	0.3102 ± 0.013
x1 = 0.9495	745.29 ± 0.24	740.17 ± 0.24	734.96 ± 0.24	729.72 ± 0.24	0.3752 ± 0.016	0.354 ± 0.015	0.3276 ± 0.014	0.3054 ± 0.013
x1 = 0.9594	744.4 ± 0.24	739.28 ± 0.24	734.04 ± 0.24	728.78 ± 0.24	0.3682 ± 0.015	0.3458 ± 0.015	0.3227 ± 0.014	0.3007 ± 0.013
x1 = 0.9688	743.56 ± 0.24	738.42 ± 0.24	733.17 ± 0.24	727.88 ± 0.24	0.3623 ± 0.015	0.3405 ± 0.014	0.317 ± 0.013	0.2966 ± 0.013
x1 = 0.9792	742.63 ± 0.24	737.46 ± 0.24	732.2 ± 0.24	726.89 ± 0.24	0.3563 ± 0.015	0.3352 ± 0.014	0.3104 ± 0.013	0.2916 ± 0.013
x1 = 0.9902	741.63 ± 0.24	736.44 ± 0.24	731.16 ± 0.24	725.83 ± 0.24	0.3533 ± 0.015	0.3291 ± 0.014	0.3035 ± 0.013	0.2863 ± 0.012
